Activity calls are given as the source filed them. No rule for the calls is given here.

The data set concerns rodent carcinogenicity bioassays, tumor incidence. Kind of data set: CCRIS carcinogenicity studies. The text has this: The CCRIS database contains chemical records with carcinogenicity, mutagenicity, tumor promotion, and tumor inhibition test results. It was developed by the National Cancer Institute (NCI). Data are derived from studies cited in primary journals, current awareness tools, NCI reports, and other sources. Test results have been reviewed by experts in carcinogenesis and mutagenesis.
CCRIS provides historical information from the years 1985 - 2011. It is no longer updated.
This is an archive assay for CCRIS carcinogenicity studies.

Take `CCCCCCCCCN(C)N=O`: the carcinogen call (Species: RAT, Strain/Sex: F344/MALE, Route: GAVAGE, Dose: 0, 100 MG/ML IN CORN OIL 2/WK FOR 30 WK, STUDY DURATION: 60 WK, Dose: 0, 100 MG/ML IN CORN OIL 2/WK FOR 30 WK, STUDY DURATION: 60 WK, Tumor Site: Type of Lesion: LUNG: ADENOCARCINOMA, NASAL CAVITY: CARCINOMA, PAPILLOMA, LIVER: CHOLANGIOCARCINOMA, HEPATOCELLULAR TUMOR, Tumor Site: Type of Lesion: LUNG: ADENOCARCINOMA, NASAL CAVITY: CARCINOMA, PAPILLOMA, LIVER: CHOLANGIOCARCINOMA, HEPATOCELLULAR TUMOR) was “active; positive”.
With `[Ni]#[Sb]`, the carcinogen call (Species: RAT, Strain/Sex: F344/MALE, Route: INTRAMUSCULAR, Tumor Site: Type of Lesion: INJECTION SITE: SARCOMA) was “active; positive”.
Consider `CC(=O)C(N=Nc1ccc(-c2ccc(N=NC(C(C)=O)C(=O)Nc3ccccc3)c(Cl)c2)cc1Cl)C(=O)Nc1ccccc1` (centres undefined), for which the carcinogen call was “inactive; negative” (Species: MOUSE, Strain/Sex: B6C3F1/FEMALE, Route: ORAL, Dose: 0, 2.5, 5% OF DIET, Dose: 0, 2.5, 5% OF DIET); “inactive; negative” (Species: MOUSE, Strain/Sex: B6C3F1/MALE, Route: ORAL, Dose: 0, 2.5, 5% OF DIET, Dose: 0, 2.5, 5% OF DIET); “inactive; negative” (Species: RAT, Strain/Sex: F344/FEMALE, Route: ORAL, Dose: 0, 2.5, 5% OF DIET, Dose: 0, 2.5, 5% OF DIET); “inactive; negative” (Species: RAT, Strain/Sex: F344/MALE, Route: ORAL, Dose: 0, 2.5, 5% OF DIET, Dose: 0, 2.5, 5% OF DIET).
Regarding `OC1c2cccc3c4ccccc4c4c5ccccc5cc(c4c23)C1O` (centres undefined), for the setting “Species: MOUSE, Strain/Sex: SWISS/FEMALE, Route: DERMAL, Dose: 0, 1, 4 NMOL IN 100 µL ACETONE 2/WK FOR 40 WK (STUDY DURATION: 48 WK), Dose: 0, 1, 4 NMOL IN 100 µL ACETONE 2/WK FOR 40 WK (STUDY DURATION: 48 WK)”, the carcinogen call is “inactive; negative”.
Turning to `c1ccc(Nc2ccc3ccccc3c2)cc1`, the carcinogen call is “equivocal” (Species: MOUSE, Strain/Sex: B6C3F1/FEMALE, Route: ORAL, Dose: 0, 2500, 5000 PPM IN DIET FOR 103 WK (STUDY DURATION: 104 WK), Dose: 0, 2500, 5000 PPM IN DIET FOR 103 WK (STUDY DURATION: 104 WK), Tumor Site: Type of Lesion: KIDNEY: RENAL TUBULAR CELL ADENOMA, RENAL TUBULAR CELL ADENOCARCINOMA); “inactive; negative” (Species: MOUSE, Strain/Sex: B6C3F1/MALE, Route: ORAL, Dose: 0, 2500, 5000 PPM IN DIET FOR 103 WK (STUDY DURATION: 104 WK), Dose: 0, 2500, 5000 PPM IN DIET FOR 103 WK (STUDY DURATION: 104 WK)); “inactive; negative” (Species: RAT, Strain/Sex: F344/FEMALE, Route: ORAL, Dose: 0, 2500, 5000 PPM IN DIET FOR 103 WK (STUDY DURATION: 104 WK), Dose: 0, 2500, 5000 PPM IN DIET FOR 103 WK (STUDY DURATION: 104 WK)); “inactive; negative” (Species: RAT, Strain/Sex: F344/MALE, Route: ORAL, Dose: 0, 2500, 5000 PPM IN DIET FOR 103 WK (STUDY DURATION: 104 WK), Dose: 0, 2500, 5000 PPM IN DIET FOR 103 WK (STUDY DURATION: 104 WK)); “inactive; negative” (Species: RAT, Strain/Sex: SPRAGUE-DAWLEY/FEMALE, Route: GAVAGE, Dose: 0, 600 MG/KG BW 2/WK FOR DURATION OF STUDY (STUDY DURATION: LIFETIME)); “inactive; negative” (Species: RAT, Strain/Sex: SPRAGUE-DAWLEY/MALE, Route: GAVAGE, Dose: 0, 600 MG/KG BW 2/WK FOR DURATION OF STUDY (STUDY DURATION: LIFETIME)).
With `CCN(CC)c1ccc2c(-c3ccc(S(=O)(=O)O)cc3S(=O)(=O)[O-])c3ccc(=[N+](CC)CC)cc-3oc2c1`, the carcinogen call is “inactive; negative” (Species: RAT, Strain/Sex: F344/FEMALE, Route: ORAL, Dose: 0, 2.5, 5% IN DIET FOR 106 WK (STUDY DURATION: 106 WK), Dose: 0, 2.5, 5% IN DIET FOR 106 WK (STUDY DURATION: 106 WK)) and “inactive; negative” (Species: RAT, Strain/Sex: F344/MALE, Route: ORAL, Dose: 0, 2.5, 5% IN DIET FOR 106 WK (STUDY DURATION: 106 WK), Dose: 0, 2.5, 5% IN DIET FOR 106 WK (STUDY DURATION: 106 WK)).
As to `O=[N+]([O-])c1cccc2c1ccc1c3ccccc3ccc21`, the carcinogen call was “inactive; negative” (Species: MOUSE, Strain/Sex: ICR/FEMALE, Route: INTRAPERITONEAL, Dose: 0, 100 NMOL (TOTAL DOSE) ADMINISTERED IN 3 SUBDOSES OF 1/7, 2/7, AND 4/7 ON DAYS 1, 8 AND 15 OF LIFE, RESPECTIVELY (STUD) and “inactive; negative” (Species: MOUSE, Strain/Sex: ICR/MALE, Route: INTRAPERITONEAL, Dose: 0, 100 NMOL (TOTAL DOSE) ADMINISTERED IN 3 SUBDOSES OF 1/7, 2/7, AND 4/7 ON DAYS 1, 8 AND 15 OF LIFE, RESPECTIVELY (STUD).
Regarding `O=c1[nH]cc(N(CCCl)CCCl)c(=O)[nH]1`, the carcinogen call is, setting by setting: (Species: MOUSE, Strain/Sex: STRAIN-A/MALE,FEMALE, Route: INTRAPERITONEAL, Dose: 0.18-12 MG/KG IN 12 DOSES OVER 4 WK, Tumor Site: Type of Lesion: LUNG: ADENOMA) “active; positive”; (Species: MOUSE, Strain/Sex: STRAIN-A/MALE,FEMALE, Route: INTRAPERITONEAL, Dose: 8, 20, 40 MG/KG FOR 7 DOSES OVER 24 WK, Dose: 8, 20, 40 MG/KG FOR 7 DOSES OVER 24 WK, Tumor Site: Type of Lesion: LUNG: ADENOMA) “active; positive”; (Species: RAT, Strain/Sex: STRAIN-CD/FEMALE, Route: INTRAPERITONEAL, Dose: 0.15, 0.3 MG/KG 3/WK FOR 6 MO, Tumor Site: Type of Lesion: LYMPHATIC SYSTEM: LYMPHOMA, PERITONEAL CAVITY: SARCOMA, MAMMARY GLAND: CARCINOMA, OVARIES: CARCINOMA, Tumor Site: Type of Lesion: LYMPHATIC SYSTEM: LYMPHOMA, PERITONEAL CAVITY: SARCOMA, MAMMARY GLAND: CARCINOMA, OVARIES: CARCINOMA) “active; positive”; (Species: RAT, Strain/Sex: STRAIN-CD/MALE, Route: INTRAPERITONEAL, Dose: 0.15, 0.3 MG/KG 3/WK FOR 6 MO, Tumor Site: Type of Lesion: LYMPHATIC SYSTEM: LYMPHOMA, PANCREAS, PERITONEAL CAVITY: SARCOMA, Tumor Site: Type of Lesion: LYMPHATIC SYSTEM: LYMPHOMA, PANCREAS, PERITONEAL CAVITY: SARCOMA) “active; positive”.
`CN1CCC[C@H]1c1cccnc1`: the carcinogen call (Species: RAT, Strain/Sex: F344/FEMALE, Route: INHALATION, Dose: 0, 500 UG/M3 20 HR/D 5 D/WK FOR 2 YR (STUDY DURATION: 2 YR)) was “inactive; negative”.
Turning to `CO[Si](CCCOCC1CO1)(OC)OC` (centres undefined), the carcinogen call (Species: MOUSE, Strain/Sex: C3H/MALE, Route: DERMAL, Dose: 0, 5 MG IN ACETONE 3/WK FOR DURATION OF STUDY (STUDY DURATION: LIFETIME)) was “inactive; negative”.
As to `C=CCc1ccc(O)c(OC)c1`, the carcinogen call by setting is: (Species: MOUSE, Strain/Sex: B6C3F1/FEMALE, Route: ORAL, Dose: 0, 3000, 6000 PPM IN DIET FOR 103 WK (STUDY DURATION: 103 WK), Dose: 0, 3000, 6000 PPM IN DIET FOR 103 WK (STUDY DURATION: 103 WK), Tumor Site: Type of Lesion: LIVER: HEPATOCELLULAR ADENOMA OR CARCINOMA) “equivocal”; (Species: MOUSE, Strain/Sex: B6C3F1/MALE, Route: ORAL, Dose: 0, 3000, 6000 PPM IN DIET FOR 103 WK (STUDY DURATION: 103 WK), Dose: 0, 3000, 6000 PPM IN DIET FOR 103 WK (STUDY DURATION: 103 WK), Tumor Site: Type of Lesion: LIVER: HEPATOCELLULAR ADENOMA, HEPATOCELLULAR CARCINOMA) “equivocal”; (Species: RAT, Strain/Sex: F344/FEMALE, Route: ORAL, Dose: 0, 6000, 12500 PPM IN DIET FOR 103 WK (STUDY DURATION: 103 WK), Dose: 0, 6000, 12500 PPM IN DIET FOR 103 WK (STUDY DURATION: 103 WK)) “inactive; negative”; (Species: RAT, Strain/Sex: F344/MALE, Route: ORAL, Dose: 0, 3000, 6000 PPM IN DIET FOR 103 WK (STUDY DURATION: 103 WK), Dose: 0, 3000, 6000 PPM IN DIET FOR 103 WK (STUDY DURATION: 103 WK)) “inactive; negative”.
With `O=Cc1ccc(CCl)o1`, the carcinogen call (Species: MOUSE, Strain/Sex: B6C3F1/MALE, Route: INTRAPERITONEAL, Dose: 0, 0.1, 0.25 UMOL/G IN 5 µL DMSO/G BW ONCE (STUDY DURATION: 10 MO), Dose: 0, 0.1, 0.25 UMOL/G IN 5 µL DMSO/G BW ONCE (STUDY DURATION: 10 MO), Tumor Site: Type of Lesion: LIVER: TUMOR) is “active; positive”.
Consider `O=C(O)Nc1ccc(-c2ccccc2)cc1`, for which the carcinogen call (Species: RAT, Strain/Sex: STRAIN-CD/FEMALE, Route: INTRAPERITONEAL, Dose: 0, 100 UMOL/KG BW 2/WK FOR 6 WK (STUDY DURATION: 62 WK)) was “inactive; negative”.

For the origin of these results see PubChem BioAssay AID1259411 (Chemical Carcinogenesis Research Information System (CCRIS), 2018).
